Calls of active or inactive are those of the source.
Legend:
Proteasome [1] = experiment: Binding affinity to proteasome in azido-BODIPY-epoxomicin treated HEK293T cell lysates at 1 to 100 uM after 1 hr by Western blot analysis with streptavidin-HRP; format: subcellular; settings: Homo sapiens, HEK-293T
Proteasome [2] = experiment: Binding affinity to proteasome in azido-BODIPY-epoxomicin treated HEK293T cell lysates at 5 uM at 37 degC after 2 hrs by SDS-PAGE-based fluorescence analysis; format: subcellular; settings: Homo sapiens, HEK-293T
HeLa [3] = experiment: Binding affinity to proteasome in human HeLa cells assessed as fluorescence at 5 uM pretreated with azido-BODIPY-epoxomicin for 2 hrs followed by 4 hrs of incubation with compound measured post washing by SDS-PAGE-based Western blot analysis
Proteasome [4] = experiment: Binding affinity to proteasome in azido-BODIPY-epoxomicin treated HEK293T cell lysates at 50 to 100 uM after 1 hr by SDS-PAGE-based fluorescence analysis; format: subcellular; settings: Homo sapiens, HEK-293T
Proteasome [5] = experiment: Binding affinity to proteasome in azido-BODIPY-epoxomicin treated HEK293T cell lysates at 5 uM at 0 degC by SDS-PAGE-based fluorescence analysis; format: subcellular; settings: Homo sapiens, HEK-293T
Proteasome [6] = experiment: Binding affinity to proteasome in azido-BODIPY-epoxomicin treated HEK293T cell lysates at 5 uM at 37 degC up to 4 hrs by SDS-PAGE-based fluorescence analysis; format: subcellular; settings: Homo sapiens, HEK-293T
Proteasome [7] = experiment: Binding affinity to proteasome in azido-BODIPY-epoxomicin treated HEK293T cell lysates at 0.5 uM at 0 degC by SDS-PAGE-based fluorescence analysis; format: subcellular; settings: Homo sapiens, HEK-293T
HeLa [8] = experiment: Binding affinity to proteasome in human HeLa cells assessed as fluorescence at 0.5 uM pretreated with azido-BODIPY-epoxomicin for 2 hrs followed by 4 hrs of incubation with compound measured post washing by SDS-PAGE-based Western blot analysis
Proteasome [9] = experiment: Binding affinity to proteasome in azido-BODIPY-epoxomicin treated HEK293T cell lysates at 5 uM after 1 hr by SDS-PAGE-based fluorescence analysis; format: subcellular; settings: Homo sapiens, HEK-293T
Proteasome [10] = experiment: Binding affinity to proteasome in azido-BODIPY-epoxomicin treated HEK293T cell lysates at 0.5 uM at 37 degC after 30 mins by SDS-PAGE-based fluorescence analysis; format: subcellular; settings: Homo sapiens, HEK-293T
Proteasome [11] = experiment: Binding affinity to proteasome in azido-BODIPY-epoxomicin treated HEK293T cell lysate at 50 uM at 37 degC up to 4 hrs by SDS-PAGE-based fluorescence analysis; format: subcellular; settings: Homo sapiens, HEK-293T
HeLa [12] = experiment: Binding affinity to proteasome in human HeLa cells assessed as fluorescence at 100 uM pretreated with azido-BODIPY-epoxomicin for 2 hrs followed by 4 hrs of incubation with compound measured post washing by SDS-PAGE-based Western blot analysis
Proteasome [13] = experiment: Binding affinity to proteasome in azido-BODIPY-epoxomicin treated HEK293T cell lysates at 50 uM at 0 degC by SDS-PAGE-based fluorescence analysis; format: subcellular; settings: Homo sapiens, HEK-293T

Measured: Activity

O=C(CCCC[C@@H]1SC[C@@H]2NC(=O)N[C@@H]21)NCCOCCOCCOCCNC(=O)OC[C@@H]1[C@@H]2CCC#CCC[C@@H]21
active: Proteasome [1] | Proteasome [2] | HeLa [3] | Proteasome [4] | Proteasome [5]

O=C(CCCC[C@@H]1SC[C@@H]2NC(=O)N[C@@H]21)NCCOCCOCCNC(=O)C1(F)C#CCCCCC1 (stereo partly drawn)
active: Proteasome [1] | Proteasome [6] | HeLa [3] | Proteasome [4] | Proteasome [5]

O=C(CCCC[C@@H]1SC[C@@H]2NC(=O)N[C@@H]21)NCCOCCOCCOCCNC(=O)OC1Cc2ccccc2C#Cc2ccccc21 (stereo partly drawn)
active: Proteasome [7] | Proteasome [1] | HeLa [8] | Proteasome [9] | Proteasome [10]

COC(=O)c1ccc(C(=O)NCCOCCOCCNC(=O)CCCC[C@@H]2SC[C@@H]3NC(=O)N[C@@H]32)cc1P(c1ccccc1)c1ccccc1
active: Proteasome [11] | HeLa [12] | Proteasome [13]
